Drawing on publication PMC3293801, “Differential Contribution of the Repeats to Heparin Binding of HBHA, a Major Adhesin of Mycobacterium tuberculosis” (PLoS ONE, 2012), this text covers Kd for two substances.

The assay deals with T1, MalE-Ct (Mycobacterium tuberculosis, UniProt P9WIP9).
T1 construct: gene hbhA; pMAL+3R1+2R2, E. coli B834; 15N-labelled; MBP kept
The assay is classed as binding. The following applies: 20 mM phosphate pH 6.8, 0.15 M NaCl, 20°C, 900 MHz, 60 µM protein; apparent, single site.

T1 sequence (P9WIP9 161-199): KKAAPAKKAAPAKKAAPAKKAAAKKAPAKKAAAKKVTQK

As to dp14 heparin-derived oligosaccharide, the Kd came to 58.8 ± 14 µM.

Consider dp10 heparin-derived oligosaccharide, for which the Kd stood at 79.4 ± 23 µM.
